Measurements: patent US9783536B2, “Nitrogen-containing heterocyclic compound or salt thereof” (FUJIFILM Corporation, priority 2013, dated 2017)
Where a name gives a salt, the structure may show the parent alone. Read-outs that look alike come from different tables or passages of the source.

What was measured:
Assay type in all cases: biochemical
human PI3Kα protein = biological target: T1, human PI3Kα protein (Homo sapiens, UniProt P42336); experiment: PI3Kα enzyme assay (ADP-Glo); conditions: read-out: PI3Kα enzyme inhibitory activity
T1 construct: purchased Carna Biosciences, Inc; host or cells: baculovirus expression system
T1 sequence (P42336 whole entry): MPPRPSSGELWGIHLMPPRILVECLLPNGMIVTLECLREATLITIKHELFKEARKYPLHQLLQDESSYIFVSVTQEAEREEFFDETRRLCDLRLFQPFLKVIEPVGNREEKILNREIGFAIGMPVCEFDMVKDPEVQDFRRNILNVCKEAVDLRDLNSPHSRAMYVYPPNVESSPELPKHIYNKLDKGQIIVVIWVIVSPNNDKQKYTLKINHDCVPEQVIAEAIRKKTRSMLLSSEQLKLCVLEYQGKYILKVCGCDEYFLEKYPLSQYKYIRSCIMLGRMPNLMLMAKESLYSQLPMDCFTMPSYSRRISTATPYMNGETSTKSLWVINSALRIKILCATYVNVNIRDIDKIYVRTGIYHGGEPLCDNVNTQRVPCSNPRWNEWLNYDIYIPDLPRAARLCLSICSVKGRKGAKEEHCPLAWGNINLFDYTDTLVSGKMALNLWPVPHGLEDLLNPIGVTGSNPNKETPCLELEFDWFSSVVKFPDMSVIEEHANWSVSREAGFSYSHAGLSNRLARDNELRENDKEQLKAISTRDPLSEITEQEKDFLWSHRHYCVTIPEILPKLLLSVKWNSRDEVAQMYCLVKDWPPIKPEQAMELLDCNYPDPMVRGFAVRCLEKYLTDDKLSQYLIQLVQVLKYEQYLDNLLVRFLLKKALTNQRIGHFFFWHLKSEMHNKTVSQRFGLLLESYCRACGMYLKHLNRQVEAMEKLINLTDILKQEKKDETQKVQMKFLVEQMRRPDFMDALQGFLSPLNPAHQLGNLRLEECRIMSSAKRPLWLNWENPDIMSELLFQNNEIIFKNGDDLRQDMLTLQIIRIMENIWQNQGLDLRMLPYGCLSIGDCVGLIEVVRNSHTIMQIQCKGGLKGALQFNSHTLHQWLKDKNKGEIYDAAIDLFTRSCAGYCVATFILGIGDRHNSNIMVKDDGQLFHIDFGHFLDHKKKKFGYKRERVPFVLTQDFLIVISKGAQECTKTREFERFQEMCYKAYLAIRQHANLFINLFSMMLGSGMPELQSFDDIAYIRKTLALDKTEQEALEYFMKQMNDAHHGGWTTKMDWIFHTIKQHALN
T1 sequence (P27986 whole entry partner): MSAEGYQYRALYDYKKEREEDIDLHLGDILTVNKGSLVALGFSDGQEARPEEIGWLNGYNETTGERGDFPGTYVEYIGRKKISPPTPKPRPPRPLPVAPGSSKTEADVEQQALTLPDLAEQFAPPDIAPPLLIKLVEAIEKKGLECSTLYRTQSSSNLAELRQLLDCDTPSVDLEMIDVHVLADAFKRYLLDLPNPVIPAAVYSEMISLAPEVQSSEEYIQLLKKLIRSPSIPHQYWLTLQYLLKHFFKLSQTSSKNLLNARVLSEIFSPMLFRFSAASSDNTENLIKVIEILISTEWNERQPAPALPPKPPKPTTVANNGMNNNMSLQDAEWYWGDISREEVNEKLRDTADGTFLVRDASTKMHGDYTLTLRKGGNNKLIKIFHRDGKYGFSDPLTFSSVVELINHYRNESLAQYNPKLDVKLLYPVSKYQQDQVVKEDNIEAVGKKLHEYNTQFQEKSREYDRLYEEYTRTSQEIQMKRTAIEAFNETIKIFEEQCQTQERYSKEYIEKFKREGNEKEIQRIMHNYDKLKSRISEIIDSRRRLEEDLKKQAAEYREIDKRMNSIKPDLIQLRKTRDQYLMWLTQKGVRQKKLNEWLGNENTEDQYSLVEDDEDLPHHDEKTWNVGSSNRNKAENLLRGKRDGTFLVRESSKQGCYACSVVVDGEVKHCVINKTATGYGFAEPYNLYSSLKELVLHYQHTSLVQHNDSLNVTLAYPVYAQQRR
How it was run: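 Biotinylated human PI3Kα (baculovirus-expressed, 4.5 nmol/L) pre-incubated 15 min with compound in Tris-HCl pH 7.5, MgCl2, BSA; reaction 60 min at 25° C with 50 μmol/L PIP2 and 100 μmol/L ATP final. ADP quantified by ADP-Glo luminescence; IC50 calculated.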

[1] = biological target: T2, GST fusion human ERK2 protein (Homo sapiens, UniProt P28482); experiment: ERK2 enzyme assay (2); conditions: read-out: ERK2 enzyme inhibitory activity (2)
T2 construct: purchased Carna Biosciences, Inc; host or cells: E. coli expression system
T2 sequence (P28482 whole entry, the tested form may be a part): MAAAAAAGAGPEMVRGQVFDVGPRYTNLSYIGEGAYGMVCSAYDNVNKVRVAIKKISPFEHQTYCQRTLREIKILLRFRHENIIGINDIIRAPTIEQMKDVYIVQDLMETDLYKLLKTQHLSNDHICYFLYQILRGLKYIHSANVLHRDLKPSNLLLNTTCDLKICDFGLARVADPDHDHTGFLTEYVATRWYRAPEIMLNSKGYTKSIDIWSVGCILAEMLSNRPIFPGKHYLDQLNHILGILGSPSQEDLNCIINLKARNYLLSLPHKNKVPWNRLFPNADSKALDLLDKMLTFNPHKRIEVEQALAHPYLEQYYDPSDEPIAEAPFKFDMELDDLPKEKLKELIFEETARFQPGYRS
How it was run: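 IC50 values come from mobility-shift measurement of phosphorylated versus unphosphorylated 5-FAM peptide substrate after EDTA quench. Beforehand, compound and 1.25 nmol/L E. coli-expressed GST–human ERK2 stood 15 min at room temperature (pH 7.5), then 1 mmol/L ATP and 4.25 μmol/L substrate (final) were added for 120 min at 25 °C.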

[2] = biological target: T2, GST fusion human ERK2 protein; experiment: ERK2 enzyme assay (1); conditions: read-out: ERK2 enzyme inhibitory activity (1)
How it was run: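 IC50 derived from the proportion of phosphorylated 5-FAM peptide, separated from unphosphorylated peptide by microfluidic mobility shift. Compound was first preincubated 15 min at room temperature with 2.5 nmol/L kinase at pH 7.5, then 43.1 μmol/L ATP plus 4.25 μmol/L substrate reacted 120 min at 25 °C.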

[3] = 4.5 nmol/L PI3Kα, PIP2 50 μmol/L, ATP 100 μmol/L
[4] = 2.5 nmol/L ERK2, ATP 43.1 μmol/L

| Structure (SMILES) | IC50 (human PI3Kα protein; [3]) [nM] | IC50 ([1]; 1.25 nmol/L ERK2, ATP 1 mmol/L) [nM] | IC50 [2, 4] [nM] | IC50 (human PI3Kα protein) [nM] | IC50 ([1]; ERK2 enzyme assay (2)) [nM] | IC50 ([2]; ERK2 enzyme assay (1)) [nM] |
| --- | --- | --- | --- | --- | --- | --- |
| CC(C)c1cnnc(Nc2ccc3ncc(Nc4cncc(OCCN5CCOCC5)c4)cc3n2)c1 [Example 0159, N^2-(5-isopropylpyridazin-3-yl)-N^7-(5-(2-morpholinoethoxyl)pyridin-3-yl)-1,5-naphthyridine-2,7-diamine] | < 1000 | < 1000 | < 1000 | – | – | – |
| COCc1nn(C)cc1-c1cnc2ccc(Nc3cc(C(C)C)cnn3)nc2c1 [Example 0160] | < 1000 | < 1000 | < 1000 | – | – | – |
| COCc1nn(C)cc1-c1cnc2ccc(Nc3cc(C)cnn3)nc2c1 [Example 0161] | < 1000 | < 1000 | < 1000 | – | – | – |
| Cn1cc(-c2cnc3ccc(Nc4nnc(C(C)(C)C)s4)nc3c2)cn1 [Example 0162] | < 1000 | < 1000 | < 1000 | – | – | – |
| CCc1nnc(Nc2ccc3ncc(-c4cnn(C)c4)cc3n2)s1 [Example 0163] | < 1000 | < 1000 | < 1000 | – | – | – |
| CC(C)c1nnc(Nc2ccc3ncc(-c4cnn(C)c4)cc3n2)s1 [Example 0167, 5-Isopropyl-N-(7-(1-methyl-1H-pyrazol-4-yl)-1,5-naphthyridin-2-yl)-1,3,4-thiadiazole-2-amine] | < 1000 | < 1000 | < 1000 | – | – | – |
| COCc1nnc(Nc2ccc3ncc(-c4cnn(C)c4)cc3n2)s1 [Example 0170, 5-(Methoxymethyl)-N-(7-(1-methyl-1H-pyrazol-4-yl)-1,5-naphthyridin-2-yl)-1,3,4-thiadiazole-2-amine] | 1000 to 10000 | < 1000 | < 1000 | – | – | – |

Next, values leading:

| IC50 (human PI3Kα protein; [3]) [nM] | IC50 ([1]; 1.25 nmol/L ERK2, ATP 1 mmol/L) [nM] | IC50 [2, 4] [nM] | IC50 (human PI3Kα protein) [nM] | IC50 ([1]; ERK2 enzyme assay (2)) [nM] | IC50 ([2]; ERK2 enzyme assay (1)) [nM] | Structure (SMILES) |
| --- | --- | --- | --- | --- | --- | --- |
| < 1000 | < 1000 | < 1000 | – | – | – | Cn1cc(-c2cnc3ccc(Nc4nnc(C5CCCC5)s4)nc3c2)cn1 [Example 0172, 5-cyclopentyl-N-(7-(1-methyl-1H-pyrazol-4-yl)-1,5-naphthyridin-2-yl)-1,3,4-thiadiazole-2-amine] |
| 1000 to 10000 | < 1000 | < 1000 | – | – | – | Cn1cc(-c2cnc3ccc(Nc4nnc(N5CCCC5)s4)nc3c2)cn1 [Example 0173, N-(7-(1-methyl-1H-pyrazol-4-yl)-1,5-naphthyridin-2-yl)-5-(pyrrolidin-1-yl)-1,3,4-thiadiazole-2-amine] |
| < 1000 | < 1000 | < 1000 | – | – | – | CNS(=O)(=O)c1nnc(Nc2ccc3ncc(-c4cnn(C)c4)cc3n2)s1 [Example 0189, methyl ((5-((7-(1-methyl-1H-pyrazol-4-yl)-1,5-naphthyridin-2-yl)amino)-1,3,4-thiadiazol-2-yl)sulfonyl)amide sodium salt] |
| – | – | – | 1000 to 10000 | < 1000 | < 1000 | Cc1n[nH]c(C)c1-c1cnc2ccc(Nc3nnc(C4CCCC4)s3)nc2c1 [Example 0215] |
| – | – | – | < 1000 | < 1000 | < 1000 | c1nc2ccc(Nc3nnc(C4CCC4)s3)nc2cc1-c1cnn(CCCN2CCCC2)c1 [Example 0235] |
| – | – | – | < 1000 | < 1000 | < 1000 | c1nc2ccc(Nc3nnc(C4CCCCC4)s3)nc2cc1-c1cnn(CCCN2CCCC2)c1 [Example 0236] |
| – | – | – | < 1000 | < 1000 | < 1000 | CCOC(=O)Cc1nnc(Nc2ccc3ncc(-c4cnn(CCCN5CCCC5)c4)cc3n2)s1 [Example 0242, ethyl (5-((7-(1-(3-(pyrrolidin-1-yl)propyl)-1H-pyrazol-4-yl)-1,5-naphthyridin-2-yl)amino)-1,3,4-thiadiazol-2-yl)acetate] |
| – | – | – | 1000 to 10000 | < 1000 | < 1000 | Cn1cc(-c2cnc3ccc(Nc4nnc(C5CCCN5)s4)nc3c2)cn1 (stereo not drawn) [Example 0246, N-(7-(1-methyl-1H-pyrazol-4-yl)-1,5-naphthyridin-2-yl)-5-(pyrrolidin-2-yl)-1,3,4-thiadiazole-2-amine] |
| – | – | – | 1000 to 10000 | < 1000 | < 1000 | CC(=O)N1CCCC1c1nnc(Nc2ccc3ncc(-c4cnn(C)c4)cc3n2)s1 (stereo not drawn) [Example 0248, 1-(2-(5-((7-(1-methyl-1H-pyrazol-4-yl)-1,5-naphthyridin-2-yl)amino)-1,3,4-thiadiazol-2-yl)pyrrolidin-1-yl)ethanone] |
